We go through three compounds from paper PMC11847541, “Liver fatty acid binding protein FABP1 transfers substrates to cytochrome P450 4A11 for catalysis” (The Journal of Biological Chemistry, 2025).

In series [1] the target is T1, P450 4A11 (Homo sapiens, UniProt Q02928).
T1 sequence (Q02928 5-519): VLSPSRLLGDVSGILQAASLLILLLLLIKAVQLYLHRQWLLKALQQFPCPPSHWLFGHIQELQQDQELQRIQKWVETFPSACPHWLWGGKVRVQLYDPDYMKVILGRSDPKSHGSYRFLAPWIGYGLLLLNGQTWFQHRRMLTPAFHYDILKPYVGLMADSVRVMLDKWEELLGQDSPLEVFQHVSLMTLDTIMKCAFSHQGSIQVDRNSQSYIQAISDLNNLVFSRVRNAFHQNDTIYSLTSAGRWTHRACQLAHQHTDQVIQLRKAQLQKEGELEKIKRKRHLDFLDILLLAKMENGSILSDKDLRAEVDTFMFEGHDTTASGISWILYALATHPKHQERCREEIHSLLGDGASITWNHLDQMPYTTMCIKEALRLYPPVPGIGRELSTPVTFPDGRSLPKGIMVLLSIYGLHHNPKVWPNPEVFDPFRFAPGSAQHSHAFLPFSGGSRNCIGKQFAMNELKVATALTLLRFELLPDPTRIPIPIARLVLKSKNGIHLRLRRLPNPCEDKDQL
The series is described as follows: Equilibrium binding titrations of P450 4A11 with lipids (heme Soret spectral shift). Particulars: for P450 heme Soret spectral shift induced: P450 4A11.
Method: Affinity of palmitate and 16-OH palmitate for P450 4A11 (1 μM) was assessed by monitoring the blue shift (from ∼420 nm to ∼390 nm) of the P450 heme Soret band as a substrate binds and displaces the sixth axial heme ligand (H2O) to yield pentacoordinated heme (“type I” shift) ([26]).
P450 4A11 (1 μM) was titrated with (A) palmitate and (B) 16-OH palmitate in a 1.0 cm pathlength cell. Difference plots were calculated from absorbance maxima (∼390 nm) and minima (∼420 nm), and the data were fit to a hyperbolic equation. The insets in each panel are the difference spectra between a cuvette that received the lipid substrate and a cuvette that received solvent alone. Each data point corresponds to one independent replicate.
Equilibrium binding titrations with P450 4A11 (1 μM) were performed in buffer (100 mM potassium phosphate [pH 7.4]) as described previously ([44], [56]). Briefly, a baseline was first acquired on an OLIS-Cary 14 spectrophotometer set to scan from 350 to 500 nm in 1 cm glass cuvettes. […] The cuvettes were mixed with a plumper after additions, and spectra were recorded. The spectra were exported into Microsoft Excel software, and the absorbance values at 418 nm were subtracted from those at 390 nm and the values were plotted as a function of lipid concentration.
Titration of P450 4A11 with DAUDA. The P450 concentration was 1 µM and the DAUDA concentration was varied using a geometric series from 1 nM to 10 µM. […] The increase in absorbance in the UV region is due to the strong chromophore in the DAUDA dansyl moiety (Fig. S8).

The target of series [2] is T1, P450 4A11. The series is classed as biochemical. The arrangement: made in house; host or cells: E. coli. An excerpt: To differentiate between the two possible roles of FABP1 in P450 catalysis (competitive binder versus direct transfer, Fig. 2), two catalytic experiments testing palmitate oxidation were designed: one in which the FABP1 concentration was varied with a fixed concentration of palmitate (Fig. 12A) and another performed vice versa (Fig. 12B).
Dashed lines are the predicted kinetic data from the free ligand model (blue) and the direct transfer model (red) using the experimentally determined rate constants (Table 1, Fig. 2). A reaction performed without the addition of FABP1 (open circles) was also fit to a modeled curve (black dashed line), which utilizes only the rate constants determined for P450 4A11. Error bars reflect standard deviation of two replicate values, that is, range (if not visible, the deviation is too small to be represented). FABP1, fatty acid binding protein.
Potassium phosphate buffer (100 mM, pH 7.4), DTT (1 mM, added as described earlier ([44], [56])), and [1-^14C]-palmitate (5 μM, 20 mCi/mmol [added from a 1 mM stock in C2H5OH]) were added, and the mixture was split between vials. Just prior to the reaction preincubation, FABP1 (0–5 μM) was added (diluted so the same volume of FABP1 stock solutions were added to each sample). The mixtures were preincubated (5 min, 37 °C), and P450 4A11 activity was initiated with an NADPH-regenerating system ([78]), the addition of which brought reactions to their final volume (0.5 ml). Reactions (5 min) were quenched via the addition of CH2Cl2 (5 ml), were mixed with a vortex device, and were placed on ice. After the completion of the time course, the samples were centrifuged (1000g, 5 min, 23 °C) to separate layers, the organic layer (4 ml) was transferred to fresh vials, and the solvent was removed under a stream of N2. […] The column eluate was mixed (1:2, v/v) with FlowLogic U scintillation cocktail (LabLogic), and radioactivity (^14C) was detected using a β-RAM Model 5 radioflow detector (IN/US; LabLogic). Product was quantitated on the basis of its ^14C peak area relative to the summed radioactivity of the substrate and product.
To determine the reaction rate versus palmitate concentration, a similar reconstitution premixture was prepared with the modification that FABP1 (5 μM) was used instead of palmitate, and the concentrations of P450 4A11 and NADPH–P450 reductase were increased to 0.3 μM and 0.6 μM, respectively. […] The residue was dissolved in 50 μl C2H5OH, transferred to autosampler vials, and analyzed on LC–MS as described earlier (see “Quantitation of ligand-bound FABP1”) but set to operate in the negative-ion mode with the gradient mobile phase modified to (all % v/v: 0 min, 65% B; 0.5 min, 65% B; 5 min, 100% B; 7.5 min, 100% B; 7.6 min, 65% B; 9 min, 65% B). […]

Where two headings read alike, the source gives them in different places.

Turning to `O=C(O)CCCCCCCCCCCCCCCO` [16-OH Palmitate (C16), 16-hydroxypalmitate], the “P450 heme Soret spectral shift induced” value on P450 4A11 [1] was “reverse type I shift”. The Kd at P450 4A11 [1] (read-out: Kd for P450 4A11, P450 4A11 1 μM, 100 mM potassium phosphate pH 7.4) came out at 270 ± 40 nM.

On to `CCCCCCCCCCCCCCCC(=O)O` [Palmitate (C16), palmitate], for which, on P450 4A11 [2] (- cytochrome b5), the “maximal observed rate of reaction” value amounted to 12 ± 1 min⁻¹. The kcat estimate on P450 4A11 [2] (- cytochrome b5, P450 4A11 0.05 µM) is 0.483 ± 0.05 s⁻¹. The “maximum measurable rate of reaction (k2)” value at P450 4A11 [2] (palmitate oxidation, without cytochrome b5, did not saturate) came to 0.2 s⁻¹. Moreover, the Kd on P450 4A11 [1] was found to be 5200 ± 1600 nM. Also, the “P450 heme Soret spectral shift induced” value on P450 4A11 [1] (listed as Palmitate) was “classical type I spectral shift”; at P450 4A11 [1] (listed as palmitate), “type I”.

On to “FABP1: delipidated recombinant liver fatty acid binding protein with C-terminal hexahistidine tag”, for which the “reduction of enzyme activity” value in the series with P450 4A11 [2] is given as no more than 50%.
